Common to all, as to format: cell-based, Chinese Hamster
Test [1] has as its system CHO-K1 cells. Put plainly: Adaptation of CHO-K1 cells into HyQ PF-CHO media with different disaccharides. The settings on record: 3.6 g/l sugar. As for the experimental part:
Viable cell density and culture viability were determined by Trypan blue dye exclusion method using Vi-Cell XR Cell Viability Analyzer (Beckman Coulter, Brea, CA) according to manufacturer's instructions. For biochemical and other cell culture parameter analyses, 1 ml of culture sample was centrifuged at 8000 g for 10 minutes to obtain clarified supernatant. […] At each passage during the adaptation process, viable cell density and culture viability before passage and after inoculation into fresh media were determined. […] Osmolality of these culture media were determined to be between 308 and 324 mOsm/kg, well within the range for optimal mammalian cell culture. The viable cell densities and culture viabilities of these cultures at the beginning and end of each passage over a period of 74 days are shown in FIG. 1. […] However, culture viabilities and viable cell densities of the maltose culture started to pick up on Day 14. Proliferation of the cells in maltose culture then maintained over the period of the time studied, while those in the other disaccharides were terminated on Day 31 due to the lack of cell growth and depressed culture viabilities.

The test system of test [2] is SH87 cells. Put plainly: Specific maltose consumption rate, Monod model. The settings on record: non-linear regression. As to the method: Specific substrate consumption rate (qs) between culture times t1 and t2 was determined by plotting substrate concentration (S) vs IVCD according to Equation 4. −qs=(St2−St1)/IVCD St2=−qs×IVCD+St1 Equation 4
Specific substrate consumption rate (qs) was fitted into a Monod model according to Equation 5, where qs_max is the maximum specific substrate consumption rate, S is the substrate concentration, and Ks is the affinity constant. qs=(qs_max×S)/(Ks+S) Equation 5
To characterize the maltose metabolism in the maltose supplemented cultures, the specific maltose consumption rates were obtained from plots of maltose concentrations against cumulative integral viable cell densities (IVCD) according to Equation 4. […] Comparing with published specific monosaccharide consumption rates using 3.6 g/l of monosaccharides (Altamirano et al., 2000), the maximum specific maltose consumption rate determined here is similar to the specific consumption rates of fructose (0.21 ng/cell/day) and galactose (0.21 ng/cell/day) while being lower than the measured specific consumption rates of glucose (0.76 ng/cell/day) and mannose (0.88 ng/cell/day). […] While the present inventors noted that these parameters can be more accurately determined in continuous cultures, it may be practically challenging at low maltose concentrations since growth rates will be low.

Test [3] has as its system SH87 cells. Put plainly: SH87 fed-batch bioreactor cultures in PFCDM. As for the experimental part: For each culture condition to be tested, SH87 was scaled up in PFCDM and inoculated into duplicate two (2) liter glass bioreactors (Sartorius, Germany) at a viable cell density of 3×10^5 cells/ml. Culture temperature, pH, dissolved oxygen and stir rate were maintained at 37° C., 7.1, 50% and 120 rpm respectively. The culture set points for glucose and glutamine were 0.5 g/l and 0.5 mM respectively, and predictive feeding was used to maintain these concentration levels by the addition of a concentrated DMEM-based protein-free feed and a 150 g/l glucose solution. Cell culture samples were collected and analyzed daily throughout the duration of the growth profile experiment until culture viabilities fell below 50%. When necessary, culture supernatant samples were stored at −20° C. for further analysis.
Since fed-batch culture is a popular mode for the manufacturing of monoclonal antibodies, the use of maltose in fed-batch cultures was evaluated. […] As such, it was evaluated whether maltose can be used to supplement glucose in fed-batch cultures to drive the cells towards a slower but more efficient metabolism: Using a common glucose concentration setpoint of 0.5 g/l, SH87 in media supplemented with 4 g/l glucose and 20 g/l maltose was fed daily with 50% of its calculated glucose requirement, while cultures of the same cells in media containing 4 g/l glucose was fed daily with 100% of its calculated glucose requirement. Duplicate bioreactor cultures were performed for each condition and the growth, biochemical and IgG titer profiles of these cultures were plotted in FIG. 7.
Additionally, the present disclosure investigated whether maltose supplementation in the feed medium can have further effect on fed-batch cultures with maltose-supplemented base medium. Using a common glucose concentration setpoint of 0.5 g/l, SH87 in media supplemented with 4 g/l glucose and 20 g/l maltose was fed daily with 50% of its calculated glucose requirement, using a sugar feed consisting of only glucose, or of glucose and maltose in a 1:1 ratio.

In test [4] the test system is CHO-K1 cells. In words: CHO-K1 cells in PFCDM with increasing concentration of maltose. The note with it: maltose-adapted CHO-K1, PFCDM, maltose 10 g/l to 40 g/l. The source says: CHO-K1 cells adapted to PFCDM with 10 g/L of maltose was cultivated in PFCDM with 10, 20, 30 and 40 g/L maltose in batch shake flask cultures. The cultures were monitored till culture viabilities were lower than 50%, to obtain their (A) Viable cell densities (lined marker) and culture viabilities (marker only), and (B) Osmolality, (C) Glucose, (D) Lactate, (E) Glutamine and (F) Ammonium profiles. […] Even with the higher maltose concentration, lactate concentration was kept at a low level till viability started to drop on Day 6.
Examining glutamine consumption, while this was slower in the maltose culture compared to the glucose culture (FIG. 2D), it was likely due to the slower growth of the maltose culture. […] This hypothesis is supported by the ammonium production profiles: while the specific ammonium production rate was initially similar for both cultures, that for the glucose culture slowed considerably from Day 2 (FIG. 2G) to attain a final ammonium concentration of 0.14 g/l (FIG. 2E), whereas the specific ammonium production rate of the maltose culture continued at a similar rate till Day 5 to attain a higher final ammonium concentration of 0.20 g/1. […]

Consider `OC[C@H]1O[C@H](O[C@H]2[C@H](O)[C@@H](O)[C@H](O)O[C@@H]2CO)[C@H](O)[C@@H](O)[C@@H]1O` [maltose], for which the “day on which culture viabilities and viable cell densities started to pick up” value in the test with CHO-K1 cells [1] was determined as 14 days. Moreover, the “proliferation in serum-free protein-free culture medium with the sugar as sugar source” value in the test on CHO-K1 cells [1] (seeding 0.3×10^6 cells/ml, 74 days) was “can proliferate”. In addition, in the test on SH87 cells [2], the “affinity constant (Ks)” value came to 7.03 g/L and the “maximum specific maltose consumption rate (qs_max)” value came out at 0.257 ng/cell/day. Further, the “effect of additional maltose in the feed medium on cell growth, viability, glutamine, osmolality and IgG titer profiles” value in the test on SH87 cells [3] (base 4 g/l glucose + 20 g/l maltose, feed glucose and maltose 1:1 vs glucose only) is “no additional effect”. Further, in the test on SH87 cells [3] (fed-batch bioreactor), the “improvement in maximum IgG titers vs glucose-only fed-batch cultures” value was found to be 23% and the “improvement in specific IgG productivities vs glucose-only fed-batch cultures” value is 55%. The “proliferation with increased concentrations of maltose” value with CHO-K1 cells [4] is given as “proliferated faster”.

The values are drawn from patent publication US12454675B2, “Method of increasing protein yield in mammalian cells in serum-free culture medium” (AGENCY FOR SCIENCE, TECHNOLOGY AND RESEARCH, priority 2016, dated 2025).
